# Measured values published in US20220242850A1, “PHTHALAZIN-1-ONE DERIVATIVES USEFUL AS GRK2 INHIBITORS” (Janssen Pharmaceutica NV, priority 2019, published 2022).
# pIC50: −log10 of the molar value.
# Biological target: T1, GRK2 (Homo sapiens, UniProt P25098)
# T1 sequence (P25098 1-689): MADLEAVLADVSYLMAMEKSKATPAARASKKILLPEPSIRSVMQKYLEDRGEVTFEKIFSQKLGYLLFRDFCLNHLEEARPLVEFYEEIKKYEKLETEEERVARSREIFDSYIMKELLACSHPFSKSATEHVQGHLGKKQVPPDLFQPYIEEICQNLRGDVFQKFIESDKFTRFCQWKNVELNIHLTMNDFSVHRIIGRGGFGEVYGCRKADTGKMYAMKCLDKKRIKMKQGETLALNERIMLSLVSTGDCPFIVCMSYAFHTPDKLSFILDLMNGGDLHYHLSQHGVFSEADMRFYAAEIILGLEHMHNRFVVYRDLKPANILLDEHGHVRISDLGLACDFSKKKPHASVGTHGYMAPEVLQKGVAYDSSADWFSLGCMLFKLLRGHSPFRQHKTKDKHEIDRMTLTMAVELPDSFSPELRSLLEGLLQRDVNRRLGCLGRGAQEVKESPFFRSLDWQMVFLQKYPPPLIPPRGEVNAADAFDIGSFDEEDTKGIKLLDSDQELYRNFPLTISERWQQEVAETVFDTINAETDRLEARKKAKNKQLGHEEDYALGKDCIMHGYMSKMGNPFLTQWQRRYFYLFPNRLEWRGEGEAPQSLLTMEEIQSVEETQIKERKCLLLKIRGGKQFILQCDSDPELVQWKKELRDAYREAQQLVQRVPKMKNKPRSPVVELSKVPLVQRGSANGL
# Assay: hGRK2 LANCE Ultra In Vitro Assay
# Format: biochemical
# Conditions: hGRK2 LANCE Ultra Assay IC50, 10 nM GRK2; ATP 30 or 600 μM (not stated which)
# Experimental: G-protein coupled receptor kinases (GR Kinases) desensitize activated G-protein coupled receptors (GPCRs), by phosphorylation of cytoplasmic loops or carboxyl-terminal tails of GPCRs. GRK2 is one of the 6 different GR kinases and is implicated in heart failure and diabetes.
# This assay is sensitive and requires as low as 10 nM enzyme, in a total volume of 10 μL. In addition, the ATP concentration can be varied over a broad range, without interfering with the assay or changing the assay condition. […] Testing inhibitors routinely at both high and low ATP concentrations also enables identification of potential non-ATP competitive inhibitors.
# Paroxetine was used as the reference compound in this assay.
# Test compounds were dissolved in DMSO at 1 mM and were 3-fold serial diluted. The compound DMSO solutions were then added (100 nL) into a plate well using an acoustic dispenser. To each well was then added 20 nM GRK2 (5 μL) in assay buffer (20 mM HEPES, pH 7.5, 10 mM MgCl2, 0.001% Tween-20®). The plate was sealed and centrifuged at 1000 rpm for 1 min. The plate and wells containing a mixture of GRK2 and test compound were incubated at ambient temperature for 30 min (prior to initializing the enzymatic reaction).
# Enzyme reactions were initiated by the addition of 4.9 μL Substrates/Eu-Ab mix to each well. […] Final concentrations of reagents in the assays were as follows: 20 mM HEPES, pH 7.5; 10 mM MgCl2; 0.001% Tween-2® (w/v), 30 or 600 μM ATP; 200 nM ULight-peptide; 4 nM Eu-Ab; 10 nM GRK2; and 1% DMSO.
# The plates were sealed and centrifuged at 1000 rpm for 1 min. For reactions at low ATP concentration (30 μM), reaction mixtures were incubated at ambient temperature for 120 min. For reactions at high ATP concentration (600 μM), reaction mixtures were incubated at ambient temperature for 60 min.
# The enzyme reactions were quenched by addition of 10 μL of 12 mM EDTA in 1× LANCE detection solution to each well. The plates were then incubated at ambient temperature for 30 min.
# The raw HTRF data were converted to % active as follows:
# % active=(sample−NC)/(PC−NC)*100
# where NC is the mean of negative control (reactions without GRK2), and PC is the mean of positive control (reactions with GRK2 but without inhibitor). IC50 values were determined from a 4-parameter fit, using the following equation:
# Y=Bottom+(Top−Bottom)/(1+10^(Log IC50-X)*Hill slope)),
# where X=log10 of the compound concentration.
row,Structure (SMILES),pIC50
1,"COc1cccc(Cn2ncc3ccc(-c4cn[nH]c4)c(F)c3c2=O)c1 [Compound 9, 8-Fluoro-2-[(3-methoxyphenyl)methyl]-7-(1H-pyrazol-4-yl)phthalazin-1-one]",7.96
2,"COc1cccc(Cn2ncc3ccc(-c4cn[nH]c4)c(C#N)c3c2=O)c1 [Compound 10, 3-[(3-Methoxyphenyl)methyl]-4-oxo-6-(1H-pyrazol-4-yl)phthalazine-5-carbonitrile]",7.96
3,"CN(C)C(=O)COc1cccc(Cn2ncc3ccc(-c4cn[nH]c4)cc3c2=O)c1 [Compound 12, N,N-Dimethyl-2-[3-[[1-oxo-7-(1H-pyrazol-4-yl)phthalazin-2-yl]methyl]phenoxy]acetamide]",7.89
4,"COc1cccc(C(C(=O)O)n2ncc3ccc(-c4cn[nH]c4)cc3c2=O)c1 (stereo not drawn) [Compound 18, 2-(3-Methoxyphenyl)-2-[1-oxo-7-(1H-pyrazol-4-yl)phthalazin-2-yl]acetic acid]",< 4.70

# The remaining compounds from weak to strong by pIC50, led by results:
row,pIC50,Structure (SMILES)
1,7.48,"COc1cccc(C(CO)n2ncc3ccc(-c4cn[nH]c4)cc3c2=O)c1 (stereo not drawn) [Compound 15, 2-[2-Hydroxy-1-(3-methoxyphenyl)ethyl]-7-(1H-pyrazol-4-yl)phthalazin-1-one]"
2,7.60,"C#CCOc1cccc(Cn2ncc3ccc(-c4cn[nH]c4)c(F)c3c2=O)c1 [Compound 14, 8-Fluoro-2-[(3-prop-2-ynoxyphenyl)methyl]-7-(1H-pyrazol-4-yl)phthalazin-1-one]"
3,7.74,"O=C(NC1CC1)c1cc(Cn2ncc3ccc(-c4cn[nH]c4)cc3c2=O)ccc1F [Compound 13, N-Cyclopropyl-2-fluoro-5-[[1-oxo-7-(1H-pyrazol-4-yl)phthalazin-2-yl]methyl]benzamide]"
4,7.92,"CC(C)NC(=O)c1cc(Cn2ncc3ccc(-c4cn[nH]c4)cc3c2=O)ccc1F [Compound 11, 2-Fluoro-N-isopropyl-5-[[1-oxo-7-(1H-pyrazol-4-yl)phthalazin-2-yl]methyl]benzamide]"
5,8.00,"C#CCNC(=O)c1cccc(Cn2ncc3ccc(-c4cn[nH]c4)cc3c2=O)c1 [Compound 8, 3-[[1-Oxo-7-(1H-pyrazol-4-yl)phthalazin-2-yl]methyl]-N-prop-2-ynyl-benzamide]"
